Reference: patent US12215140B2, “Method of stabilizing protein contained in specimen and solution for stabilizing protein contained in specimen” (EIKEN KAGAKU KABUSHIKI KAISHA, priority 2018, dated 2025)

Tested on: hemoglobin-haptoglobin complex
Experiment: Stability of hemoglobin (as hemoglobin-haptoglobin complex) in samples preserved at 37° C. in preservation solution containing 1 unit/L haptoglobin, Hb measured by latex agglutination method (Examples 1 to 7)
Set-up: species or system human
Conditions: for Hb concentration / Recovery ratio with respect to Hb concentration after 0 days / Recovery ratio with respect to Hb after 0 days: 37° C.
Method in brief: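 Hemoglobin (~300 µg/L) in 0.5% fecal suspension, or without feces, held at 37 °C for 0–21 days in 40 mmol/L HEPES pH 6.8, 0.1% BSA, 0.1% NaN3, 1 unit/L haptoglobin, with 0–100 mmol/L phenylboronic acid ± sugars. Hb quantified by latex agglutination with anti-human Hb rabbit polyclonal; recovery (%) relative to day 0.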

[1] = Feces 3, sugar 50 mmol/L + phenylboronic acid 15 mmol/L, 7 days
[2] = Feces 3, sugar 50 mmol/L + phenylboronic acid 15 mmol/L, 14 days
[3] = Feces 3, sugar 50 mmol/L + phenylboronic acid 15 mmol/L, 21 days
[4] = Feces 3, sugar 100 mmol/L + phenylboronic acid 0.5 mmol/L, 0 days
[5] = Feces 3, sugar 100 mmol/L + phenylboronic acid 0.5 mmol/L, 7 days
[6] = Feces 3, sugar 100 mmol/L + phenylboronic acid 0.5 mmol/L, 14 days
[7] = Feces 3, sugar 100 mmol/L + phenylboronic acid 15 mmol/L, 0 days
[8] = Feces 3, sugar 100 mmol/L + phenylboronic acid 15 mmol/L, 0 days (Table 7)
[9] = Feces 3, sugar 100 mmol/L + phenylboronic acid 15 mmol/L, 7 days
[10] = Feces 3, sugar 100 mmol/L + phenylboronic acid 15 mmol/L, 7 days (Table 7)
[11] = Feces 3, sugar 100 mmol/L + phenylboronic acid 15 mmol/L, 14 days
[12] = Feces 3, sugar 100 mmol/L + phenylboronic acid 15 mmol/L, 14 days (Table 7)
[13] = Feces 3, sugar 100 mmol/L + phenylboronic acid 15 mmol/L, 21 days
[14] = Feces 3, sugar 100 mmol/L + phenylboronic acid 50 mmol/L, 0 days
[15] = Feces 3, sugar 100 mmol/L + phenylboronic acid 50 mmol/L, 7 days
[16] = Feces 3, sugar 100 mmol/L + phenylboronic acid 50 mmol/L, 14 days
[17] = Feces 3, sugar 100 mmol/L, no phenylboronic acid, 0 days
[18] = Feces 3, sugar 100 mmol/L, no phenylboronic acid, 7 days
[19] = Feces 3, sugar 100 mmol/L, no phenylboronic acid, 14 days
[20] = Feces 3, sugar 100 mmol/L, no phenylboronic acid, 21 days
[21] = No feces, sugar 50 mmol/L + phenylboronic acid 15 mmol/L, 0 days
[22] = No feces, sugar 50 mmol/L + phenylboronic acid 15 mmol/L, 7 days
[23] = No feces, sugar 50 mmol/L + phenylboronic acid 15 mmol/L, 14 days
[24] = No feces, sugar 50 mmol/L + phenylboronic acid 15 mmol/L, 21 days
[25] = No feces, sugar 100 mmol/L + phenylboronic acid 0.5 mmol/L, 0 days
[26] = No feces, sugar 100 mmol/L + phenylboronic acid 0.5 mmol/L, 7 days
[27] = No feces, sugar 100 mmol/L + phenylboronic acid 0.5 mmol/L, 14 days
[28] = No feces, sugar 100 mmol/L + phenylboronic acid 15 mmol/L, 0 days
[29] = No feces, sugar 100 mmol/L + phenylboronic acid 15 mmol/L, 0 days (Table 7)
[30] = No feces, sugar 100 mmol/L + phenylboronic acid 15 mmol/L, 7 days
[31] = No feces, sugar 100 mmol/L + phenylboronic acid 15 mmol/L, 7 days (Table 7)
[32] = No feces, sugar 100 mmol/L + phenylboronic acid 15 mmol/L, 14 days
[33] = No feces, sugar 100 mmol/L + phenylboronic acid 15 mmol/L, 14 days (Table 7)
[34] = No feces, sugar 100 mmol/L + phenylboronic acid 15 mmol/L, 21 days
[35] = No feces, sugar 100 mmol/L + phenylboronic acid 50 mmol/L, 0 days
[36] = No feces, sugar 100 mmol/L + phenylboronic acid 50 mmol/L, 7 days
[37] = No feces, sugar 100 mmol/L + phenylboronic acid 50 mmol/L, 14 days
[38] = No feces, sugar 100 mmol/L, no phenylboronic acid, 0 days
[39] = No feces, sugar 100 mmol/L, no phenylboronic acid, 7 days
[40] = No feces, sugar 100 mmol/L, no phenylboronic acid, 14 days
[41] = No feces, sugar 100 mmol/L, no phenylboronic acid, 21 days

OC[C@@H](O)[C@@H](O)[C@H](O)[C@@H](O)CO [Sorbitol, sorbitol]
Hb concentration [1]: 250 µg/L
Recovery ratio with respect to Hb concentration after 0 days [1]: 88%
Hb concentration [2]: 235 µg/L
Recovery ratio with respect to Hb concentration after 0 days [2]: 83%
Hb concentration [3]: 223 µg/L
Recovery ratio with respect to Hb concentration after 0 days [3]: 79%
Hb concentration [4]: 294 µg/L
Recovery ratio with respect to Hb after 0 days [4]: 100%
Hb concentration [5]: 163 µg/L
Recovery ratio with respect to Hb after 0 days [5]: 55%
Hb concentration [6]: 145 µg/L
Recovery ratio with respect to Hb after 0 days [6]: 49%
Hb concentration [7]: 278 µg/L
Recovery ratio with respect to Hb concentration after 0 days [7]: 100%
Hb concentration [8]: 292 µg/L
Recovery ratio with respect to Hb after 0 days [8]: 100%
Hb concentration [9]: 244 µg/L
Recovery ratio with respect to Hb concentration after 0 days [9]: 88%
Hb concentration [10]: 246 µg/L
Recovery ratio with respect to Hb after 0 days [10]: 84%
Hb concentration [11]: 226 µg/L
Recovery ratio with respect to Hb concentration after 0 days [11]: 81%
Hb concentration [12]: 233 µg/L
Recovery ratio with respect to Hb after 0 days [12]: 80%
Hb concentration [13]: 219 µg/L
Recovery ratio with respect to Hb concentration after 0 days [13]: 79%
Hb concentration [14]: 273 µg/L
Recovery ratio with respect to Hb after 0 days [14]: 100%
Hb concentration [15]: 247 µg/L
Recovery ratio with respect to Hb after 0 days [15]: 90%
Hb concentration [16]: 230 µg/L
Recovery ratio with respect to Hb after 0 days [16]: 84%
Hb concentration [17]: 278 µg/L
Recovery ratio with respect to Hb concentration after 0 days [17]: 100%
Hb concentration [18]: 98 µg/L
Recovery ratio with respect to Hb concentration after 0 days [18]: 35%
Hb concentration [19]: 62 µg/L
Recovery ratio with respect to Hb concentration after 0 days [19]: 22%
Hb concentration [20]: 56 µg/L
Recovery ratio with respect to Hb concentration after 0 days [20]: 20%
Hb concentration [21]: 281 µg/L
Recovery ratio with respect to Hb concentration after 0 days [21]: 100%
Hb concentration [22]: 261 µg/L
Recovery ratio with respect to Hb concentration after 0 days [22]: 93%
Hb concentration [23]: 251 µg/L
Recovery ratio with respect to Hb concentration after 0 days [23]: 89%
Hb concentration [24]: 265 µg/L
Recovery ratio with respect to Hb concentration after 0 days [24]: 94%
Hb concentration [25]: 291 µg/L
Recovery ratio with respect to Hb after 0 days [25]: 100%
Hb concentration [26]: 277 µg/L
Recovery ratio with respect to Hb after 0 days [26]: 95%
Hb concentration [27]: 273 µg/L
Recovery ratio with respect to Hb after 0 days [27]: 94%
Hb concentration [28]: 276 µg/L
Recovery ratio with respect to Hb concentration after 0 days [28]: 100%
Hb concentration [29]: 288 µg/L
Recovery ratio with respect to Hb after 0 days [29]: 100%
Hb concentration [30]: 252 µg/L
Recovery ratio with respect to Hb concentration after 0 days [30]: 91%
Hb concentration [31]: 274 µg/L
Recovery ratio with respect to Hb after 0 days [31]: 95%
Hb concentration [32]: 244 µg/L
Recovery ratio with respect to Hb concentration after 0 days [32]: 88%
Hb concentration [33]: 268 µg/L
Recovery ratio with respect to Hb after 0 days [33]: 93%
Hb concentration [34]: 255 µg/L
Recovery ratio with respect to Hb concentration after 0 days [34]: 92%
Hb concentration [35]: 290 µg/L
Recovery ratio with respect to Hb after 0 days [35]: 100%
Hb concentration [36]: 295 µg/L
Recovery ratio with respect to Hb after 0 days [36]: 102%
Hb concentration [37]: 293 µg/L
Recovery ratio with respect to Hb after 0 days [37]: 101%
Hb concentration [38]: 255 µg/L
Recovery ratio with respect to Hb concentration after 0 days [38]: 100%
Hb concentration [39]: 239 µg/L
Recovery ratio with respect to Hb concentration after 0 days [39]: 94%
Hb concentration [40]: 235 µg/L
Recovery ratio with respect to Hb concentration after 0 days [40]: 92%
Hb concentration [41]: 236 µg/L
Recovery ratio with respect to Hb concentration after 0 days [41]: 93%
recovery ratio of hemoglobin in the sample (sugar 100 mmol/L further added to other arylboronic acids (3-CPBA, 3-HPBA, 3-APBA) 15 mmol/L, Feces 1, Feces 2, Feces 3): further improved
recovery ratio of hemoglobin in the samples containing fecal specimens (sugar 100 mmol/L, preservation solutions containing no phenylboronic acid): does not improve
recovery ratio of hemoglobin in the sample (sugar 50 or 100 mmol/L further added to phenylboronic acid 15 mmol/L, Feces 1, Feces 2, Feces 3): remarkably improved
recovery ratio of hemoglobin in the samples containing feces (sugar added to phenylboronic acid 15 mmol/L, Feces 1, Feces 2, Feces 3): improved depending on the added concentration
